Test results from paper PMC7470113, “Design, synthesis and biological evaluation of edaravone derivatives bearing the N-benzyl pyridinium moiety as multifunctional anti-Alzheimer’s agents” (Journal of Enzyme Inhibition and Medicinal Chemistry, 2020).
Like-named read-outs stand apart in the source and are kept apart here.

How the values were obtained:
[1] = target: T1, eeAChE (Electrophorus electricus, UniProt O42275); test: Cholinesterase inhibition assay (modified Ellman's method), eeAChE; format: biochemical; conditions: for IC50: eeAChE, Ellman, 25 °C, triplicate, read-out: AChE IC50; for SI AChE (AChE selectivity index = IC50(eqBuChE)/IC50(eeAChE)): ratio BuChE/AChE
T1 construct: purchased Sigma-Aldrich
Description: (§1) . […] The test compounds and control were dissolved in DMSO and added to the well to yield various concentrations (1000 µM, 100 µM, 10 µM, 1 µM, 0.1 µM and 0.01 µM). The quantity of DMSO per well accumulated to below 0.01%[45]. Each concentration of test compound and control was conducted in triplicate to ensure consistent results. The well-plates were then incubated at 25 °C for 10 min. Thereafter, 30 µL of either the ATCI or BTCI substrate was added to each well. The plate was then placed inside a Rayto 6500 spectrometer and the absorbance was read at 405 nm every 45 s for 5 min. The percentage activity was calculated using the following equation: [(absorbance of blank − absorbance of test compounds)/absorbance of blank × 100)]. All data analysis was conducted on GraphPad Prism version 8.2.1 for Mac OS, GraphPad Software (San Diego, CA, USA)
(§2) The inhibitory activities of the synthesised compounds were evaluated using eeAChE (electric eel) and eqBuChE (equine serum) according to a modified method of Ellman[44]. […].

[2] = target: T2, eqBuChE (Equus caballus, UniProt P81908); test: Cholinesterase inhibition assay (modified Ellman's method), eqBuChE; format: biochemical; conditions: 25 °C, triplicate, read-out: BuChE IC50
T2 construct: purchased Sigma-Aldrich; host or cells: equine serum
Description: as §1, §2

[3] = DPPH+ free radical scavenging antioxidant assay
Description: Antioxidant activity was studied with the DPPH^+ free radical scavenging assay[46]^,[47]. DPPH^+ and trolox were purchased from Sigma-Aldrich®. The following method was employed, as previously described, to determine the antioxidant activity of the test compounds. Each well of a 96 well plate, contained the following: 180 µL of 0.12 mM DPPH^+ dissolved in methanol and 20 µL of either test compound, control (trolox) or blank (DMSO). The test compounds and control were dissolved in DMSO and added to the well to yield various concentrations (1000 µM, 100 µM, 10 µM, 1 µM and 0.1 µM). […] The well plate was incubated at 25 °C for 30 min within a dark space. […] The quantity of DMSO per well accumulated to below 0.01%[45]. […] The percentage activity was calculated using the following equation: [(absorbance of blank − absorbance of test compounds)/absorbance of blank × 100)]. All data analysis was conducted on GraphPad Prism version 8.2.1 for Mac OS, GraphPad Software (San Diego, California, USA).
The 2,2-diphenyl-1-picrylhydrazyl (DPPH^+) assay was employed to determine the antioxidant ability of the synthesised compounds.

[4] = set-up: method as in PMID 29907205; conditions: read-out: DPPH+ IC50 (antioxidant activity of edaravone); cited from earlier work
[5] = 0.12 mM DPPH+ in methanol, 30 min, 25 °C, 517 nm, read-out: DPPH+ IC50

T2 sequence (P81908 whole entry): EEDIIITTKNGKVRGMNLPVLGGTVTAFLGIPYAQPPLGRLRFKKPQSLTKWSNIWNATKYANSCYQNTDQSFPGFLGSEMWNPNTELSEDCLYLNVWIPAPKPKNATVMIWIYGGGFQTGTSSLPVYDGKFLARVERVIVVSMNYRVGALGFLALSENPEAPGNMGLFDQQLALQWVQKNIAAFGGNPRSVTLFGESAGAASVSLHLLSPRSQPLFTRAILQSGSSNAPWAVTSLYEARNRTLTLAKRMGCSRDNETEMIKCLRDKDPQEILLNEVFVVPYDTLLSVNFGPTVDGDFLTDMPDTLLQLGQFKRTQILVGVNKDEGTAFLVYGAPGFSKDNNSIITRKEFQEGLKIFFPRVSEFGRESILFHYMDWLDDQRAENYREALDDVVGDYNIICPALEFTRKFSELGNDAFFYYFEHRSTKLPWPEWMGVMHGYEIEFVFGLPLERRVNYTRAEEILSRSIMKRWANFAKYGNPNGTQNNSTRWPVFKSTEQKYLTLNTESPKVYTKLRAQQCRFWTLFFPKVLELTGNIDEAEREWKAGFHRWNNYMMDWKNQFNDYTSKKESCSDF
T1 sequence (O42275 24-633): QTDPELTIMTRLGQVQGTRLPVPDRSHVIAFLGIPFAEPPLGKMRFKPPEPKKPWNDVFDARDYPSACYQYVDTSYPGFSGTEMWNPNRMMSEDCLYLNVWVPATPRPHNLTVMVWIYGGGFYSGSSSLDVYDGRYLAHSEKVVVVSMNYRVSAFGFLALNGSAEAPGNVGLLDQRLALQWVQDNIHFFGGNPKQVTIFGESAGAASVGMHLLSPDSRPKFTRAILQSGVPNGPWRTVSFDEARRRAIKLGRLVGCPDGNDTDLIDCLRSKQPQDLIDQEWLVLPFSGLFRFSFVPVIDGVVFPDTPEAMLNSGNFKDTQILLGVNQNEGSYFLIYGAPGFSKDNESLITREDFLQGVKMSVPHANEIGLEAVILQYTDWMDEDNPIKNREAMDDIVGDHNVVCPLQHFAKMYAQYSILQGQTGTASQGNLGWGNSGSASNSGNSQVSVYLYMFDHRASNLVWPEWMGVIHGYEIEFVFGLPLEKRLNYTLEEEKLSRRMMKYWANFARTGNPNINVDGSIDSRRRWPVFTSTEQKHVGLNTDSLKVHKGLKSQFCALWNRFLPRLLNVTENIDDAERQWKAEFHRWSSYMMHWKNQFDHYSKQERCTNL

Compound | IC50 [1] | SI AChE (AChE selectivity index = IC50(eqBuChE)/IC50(eeAChE)) [1] | IC50 [2] | IC50 [3, 5] | IC50 [4] | IC50 ([3]; supplement, dose response curves, read-out: Antioxidant activity (DPPH+) dose response curve IC50)
CC1=NN(c2ccc(C(=O)NCc3cc[n+](Cc4ccccc4)cc3)cc2)C(=O)C1 [Compound 5a, 1-Benzyl-4-({[4–(3-methyl-5-oxo-4H-pyrazol-1-yl)phenyl]foramido}methyl)pyridin-1-ium bromide] | 30 µM | >33 | > 1000 µM | 22.9 µM | – | –
CC1=NN(c2ccc(C(=O)NCc3cc[n+](Cc4ccc(F)cc4)cc3)cc2)C(=O)C1 [Compound 5d, 1-[(4-Fluorophenyl)methyl]-4-({[4–(3-methyl-5-oxo-4H-pyrazol-1-yl)phenyl]foramido}methyl)pyridin-1-ium bromide] | 3.6 µM | >278 | > 1000 µM | 11.5 µM | – | –
CC1=NN(c2ccc(C(=O)NCc3cc[n+](Cc4cccc(Br)c4)cc3)cc2)C(=O)C1 [Compound 5h, 1-[(3-Bromophenyl)methyl]-4-({[4–(3-methyl-5-oxo-4H-pyrazol-1-yl)phenyl]foramido}methyl)pyridin-1-ium bromide] | > 100 µM | – | > 1000 µM | 13.3 µM | – | –
CC1=NN(c2ccc(C(=O)NCc3cc[n+](Cc4cccc(F)c4)cc3)cc2)C(=O)C1 [Compound 5c, 1-[(3-Fluorophenyl)methyl]-4-({[4–(3-methyl-5-oxo-4H-pyrazol-1-yl)phenyl]foramido}methyl)pyridin-1-ium bromide] | 4.6 µM | 201 | 926 µM | 25 µM | – | –
CC1=NN(c2ccc(C(=O)NCc3ccncc3)cc2)C(=O)C1 [Compound 3, 4–(3-Methyl-5-oxo-4H-pyrazol-1-yl)-N-(pyridine-4-ylmethyl)benzamide] | > 100 µM | – | > 1000 µM | 12.5 µM | – | –
CC1=NN(c2ccc(C(=O)NCc3cc[n+](Cc4ccc(Br)cc4)cc3)cc2)C(=O)C1 [Compound 5i, 1-[(4-Bromophenyl)methyl]-4-({[4–(3-methyl-5-oxo-4H-pyrazol-1-yl)phenyl]foramido}methyl)pyridin-1-ium bromide] | 11.5 µM | >87 | > 1000 µM | 18.1 µM | – | –
CC1=NN(c2ccc(C(=O)NCc3cc[n+](Cc4ccccc4C)cc3)cc2)C(=O)C1 [Compound 5j] | 19.9 µM | 32 | 630 µM | 9.5 µM | – | –
CC1=NN(c2ccccc2)C(=O)C1 [Edaravone] | – | – | – | – | 4.7 µM | –
CC1=NN(c2ccc(C(=O)NCc3cc[n+](Cc4cccc(C)c4)cc3)cc2)C(=O)C1 [Compound 5k] | 69.1 µM | >15 | > 1000 µM | 27.5 µM | – | –
CC1=NN(c2ccc(C(=O)NCc3cc[n+](Cc4ccccc4Br)cc3)cc2)C(=O)C1 [Compound 5g, 1-[(2-Bromophenyl)methyl]-4-({[4–(3-methyl-5-oxo-4H-pyrazol-1-yl)phenyl]foramido}methyl)pyridin-1-ium bromide] | 3.5 µM | 46 | 160 µM | 19 µM | – | 19 µM
CC1=NN(c2ccc(C(=O)NCc3cc[n+](Cc4cccc(Cl)c4)cc3)cc2)C(=O)C1 [Compound 5f, 1-[(3-Chlorophenyl)methyl]-4-({[4–(3-methyl-5-oxo-4H-pyrazol-1-yl)phenyl]foramido}methyl)pyridin-1-ium bromide] | 3.3 µM | 270 | 891 µM | 13.1 µM | – | –
Cc1c(C)c2c(c(C)c1O)CCC(C)(C(=O)O)O2 (centres unmarked) [Trolox, reference compound] | – | – | – | 13.1 µM | – | –
CC1=NN(c2ccc(C(=O)O)cc2)C(=O)C1 [Compound 1, Edaravone-COOH] | – | – | – | 45.7 µM | – | –
CC1=NN(c2ccc(C(=O)NCc3cc[n+](Cc4ccc(C)cc4)cc3)cc2)C(=O)C1 [Compound 5l] | 95.5 µM | >11 | > 1000 µM | 14.5 µM | – | –
CC1=NN(c2ccc(C(=O)NCc3cc[n+](Cc4ccccc4Cl)cc3)cc2)C(=O)C1 [Compound 5e, 1-[(2-Chlorophenyl)methyl]-4-({[4–(3-methyl-5-oxo-4H-pyrazol-1-yl)phenyl]foramido}methyl)pyridin-1-ium bromide] | 1.9 µM | 468 | 890 µM | 13.8 µM | – | –
CC1=NN(c2ccc(C(=O)NCc3cc[n+](Cc4ccccc4F)cc3)cc2)C(=O)C1 [Compound 5b, 1-[(2-Fluorophenyl)methyl]-4-({[4–(3-methyl-5-oxo-4H-pyrazol-1-yl)phenyl]foramido}methyl)pyridin-1-ium bromide] | 1.2 µM | – | > 1000 µM | 28.8 µM | – | –
